Measured values as given in patent publication US9879050B2, “Substituted urea depsipeptide analogs as activators of the CLPP endopeptidase” (priority 2013, dated 2018).
Converted amounts (≈) assume the structure as drawn. Read-outs that look alike come from different tables or passages of the source. *1 amine or outer side, *2 acyl side, *3 side chain or, on linkers, in order; H or OH if unused. Where a SMILES comes first, the peptide text is derived from it. Bridges are numbered along the chain shown (N, C = ends). [ ]: non-standard residue; d: D form. The star is where a group is joined. Phe(3,5-F2) = N[C@@H](Cc1cc(F)cc(F)c1)C(=O)O; NHPh(4-CF3) = FC(F)(F)c1ccc(N*)cc1; Heptenoyl(2E) = CCCC/C=C/C(=O)*; aThr = C[C@H](O)[C@H](N)C(=O)O; Pip = O=C(O)[C@@H]1CCCCN1; CO = O=C([*:1])[*:2]

Legend:
[1] = Cytotoxicity assay, CellTiter-Glo cell viability; format: cell-based; conditions: African green monkey
In short: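 Vero cells seeded overnight at 37 °C in DMEM with 10% FBS, then exposed to serial dilutions of compound for 72 h. Viability read by CellTiter-Glo luminescence; IC50 from duplicates, given as the range of two independent experiments.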

Sa-ClpP [2] = target: T1, Sa-ClpP (Staphylococcus aureus, UniProt Q2G036); assay: ClpP activation, EnzCheck Protease Assay with Bodipy-FL casein (second described method); format: biochemical, S. aureus
T1 construct: made in house; host or cells: E. coli BL21 (DE3)
In short: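 Sa-ClpP (2 μM in master mix) with Bodipy-FL casein (2 μM in master mix) in Tris-HCl pH 8.0, 0.01% Triton X-100, compounds in 2% DMSO, triplicate. Fluorescence (ex 485/em 520 nm) followed 30 min; degradation slopes normalized to ADEP4 and DMSO controls, EC50 and % activation by four-parameter fit.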

Sa-ClpP [3] = target: T1, Sa-ClpP; assay: ADEP displacement fluorescence polarization assay; format: binding, S. aureus
In short: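 Displacement of TAMRA-labelled ADEP 2591 probe (50 nM) from 1 μM Sa-ClpP, pre-equilibrated 1 h in Tris·HCl pH 8.0 with 2% DMSO, then 120 min at room temperature with compound, triplicate. Polarization (mP) read ex 530/em 579 nm, normalised to 20 μM ADEP 2378 and DMSO controls; four-parameter fit.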

S. pyogenes ATCC 700294 = assay: Minimal inhibitory concentration, microbroth dilution; format: cell-based; conditions: Streptococcus pyogenes, ATCC700294, read-out: Minimal Inhibitory Concentration S. pyogenes ATCC 700294
In short: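 Twofold serial dilutions in broth per CLSI M7-A7 microbroth dilution, incubated aerobically overnight at 37° C. MIC read visually as lowest concentration preventing bacterial growth.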

[4] = Vero cells, 72 hours, read-out: Cytotoxicity IC50
[5] = read-out: ClpP Activation EC50 (converted)
[6] = 1 μM Sa-ClpP, 50 nM FP probe ADEP 2591, read-out: ADEP Displacement IC50

T1 sequence (Q2G036 whole entry): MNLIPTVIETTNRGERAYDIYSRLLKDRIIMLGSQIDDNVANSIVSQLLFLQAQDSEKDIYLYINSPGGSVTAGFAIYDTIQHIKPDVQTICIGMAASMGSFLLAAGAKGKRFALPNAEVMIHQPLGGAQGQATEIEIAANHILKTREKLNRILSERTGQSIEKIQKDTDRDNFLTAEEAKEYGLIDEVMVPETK

SMILES	IC50 at 72 h [1, 4] [µM]	EC50 (Sa-ClpP [2]; [5]) [µM]	IC50 (Sa-ClpP [3]; [6]) [µM]	MIC (S. pyogenes ATCC 700294) [µM]	IC50 at 72 h [1] [µM]	EC50 (Sa-ClpP [2]) [µM]	IC50 (Sa-ClpP [3]) [µM]
CCCC/C=C/C(=O)N[C@@H](Cc1cc(F)cc(F)c1)C(=O)N[C@@H]1C(=O)N2CCC[C@H]2C(=O)N2CCCC[C@H]2C(=O)N[C@@H](C)C(=O)N2CCC[C@H]2C(=O)O[C@H]1C [ADEP 2719, reference compound] ({Heptenoyl(2E)}-[Phe(3,5-F2)][aThr]P[Pip]AP; ester 2-C)	37.7 ± 3.4	0.38 ± 0.01	6.2 ± 0.3				
C[C@@H]1C[C@H]2C(=O)OC[C@H](NC(=O)[C@H](Cc3ccccc3)NC(=O)Nc3ccc(Cl)cc3)C(=O)N3CCC[C@H]3C(=O)N3CCCC[C@H]3C(=O)N[C@@H](C)C(=O)N2C1 [Compound 3, (S)-2-(3-(4-Chlorophenyl)Ureido)-N-((2R,6S,8aS,14aS,20S,23aS)-2,6-Dimethyl-5,8,14,19,23-Pentaoxooctadecahydro-1H,5H,14H,19H-Pyrido[2,1-I]Dipyrrolo[2,1-C:2′,1′-L][1]Oxa[4,7,10,13]Tetraazacyclohexadecin-20-Yl)-3-Phenylpropanamide]	63 ± 5.8	1.5	9.25 ± 0.5	0.39 (≈ 0.304 µg/mL)			
C[C@@H]1C[C@H]2C(=O)OC[C@H](NC(=O)[C@H](Cc3ccccc3)NC(=O)Nc3ccc(N(C)C)cc3)C(=O)N3CCC[C@H]3C(=O)N3CCCC[C@H]3C(=O)N[C@@H](C)C(=O)N2C1 [Compound 5, (S)—N-((2R,6S,8aS,14aS,20S,23aS)-2,6-Dimethyl-5,8,14,19,23-Pentaoxooctadecahydro-1H,5H,14H,19H-Pyrido[2,1-1]Dipyrrolo[2,1-C:2′,1′-L][1]Oxa[4,7,10,13]Tetraazacyclohexadecin-20-Yl)-2-(3-(4-(Dimethylamino)Phenyl)Ureido)-3-Phenylpropanamide]	91.3 ± 12.7	1.5	28 ± 2.3	0.78 (≈ 0.614 µg/mL)			
COc1ccc(NC(=O)N[C@@H](Cc2ccccc2)C(=O)N[C@H]2COC(=O)[C@@H]3C[C@@H](C)CN3C(=O)[C@H](C)NC(=O)[C@@H]3CCCCN3C(=O)[C@@H]3CCCN3C2=O)cc1 [Compound 6, (S)—N-((2R,6S,8aS,14aS,20S,23aS)-2,6-Dimethyl-5,8,14,19,23-Pentaoxooctadecahydro-1H,5H,14H,19H-Pyrido[2,1-1]Dipyrrolo[2,1-C:2′,1′-L][1]Oxa[4,7,10,13]Tetraazacyclohexadecin-20-Yl)-2-(3-(4-Methoxyphenyl)Ureido)-3-Phenylpropanamide]	> 100	0.8	27.7 ± 1.5	0.39 (≈ 0.302 µg/mL)			
C[C@@H]1C[C@H]2C(=O)OC[C@H](NC(=O)[C@H](Cc3ccccc3)NC(=O)Nc3ccccc3Cl)C(=O)N3CCC[C@H]3C(=O)N3CCCC[C@H]3C(=O)N[C@@H](C)C(=O)N2C1 [Compound 7, (S)-2-(3-(2-Chlorophenyl)Ureido)-N-((2R,6S,8aS,14aS,20S,23aS)-2,6-Dimethyl-5,8,14,19,23-Pentaoxooctadecahydro-1H,5H,14H,19H-Pyrido[2,1-I]Dipyrrolo[2,1-C:2′,1′-L][1]Oxa[4,7,10,13]Tetraazacyclohexadecin-20-Yl)-3-Phenylpropanamide]	> 100	1.6	130 ± 11.3	3.13 (≈ 2.44 µg/mL)			
C[C@@H]1C[C@H]2C(=O)OC[C@H](NC(=O)[C@H](Cc3ccccc3)NC(=O)Nc3cccc(Cl)c3)C(=O)N3CCC[C@H]3C(=O)N3CCCC[C@H]3C(=O)N[C@@H](C)C(=O)N2C1 [Compound 9, (S)-2-(3-(3-Chlorophenyl)Ureido)-N-((2R,6S,8aS,14aS,20S,23aS)-2,6-Dimethyl-5,8,14,19,23-Pentaoxooctadecahydro-1H,5H,14H,19H-Pyrido[2,1-I]Dipyrrolo[2,1-C:2′,1′-L][1]Oxa[4,7,10,13]Tetraazacyclohexadecin-20-Yl)-3-Phenylpropanamide]	89 ± 5	1.1	25.4 ± 2.2	1.56 (≈ 1.21 µg/mL)			
C[C@@H]1C[C@H]2C(=O)OC[C@H](NC(=O)[C@H](Cc3ccccc3)NC(=O)Nc3ccc4c(c3)CCN4C)C(=O)N3CCC[C@H]3C(=O)N3CCCC[C@H]3C(=O)N[C@@H](C)C(=O)N2C1 [Compound 11, (S)—N-((2R,6S,8aS,14aS,20S,23aS)-2,6-Dimethyl-5,8,14,19,23-Pentaoxooctadecahydro-1H,5H,14H,19H-Pyrido[2,1-I]Dipyrrolo[2,1-C:2′,1′-L][1]Oxa[4,7,10,13]Tetraazacyclohexadecin-20-Yl)-2-(3-(1-Methylindolin-5-Yl)Ureido)-3-Phenylpropanamide]	76 ± 10.6	1.1	4.45 ± 0.3	0.6 (≈ 0.479 µg/mL)			
Cc1ccc(NC(=O)N[C@@H](Cc2cc(F)cc(F)c2)C(=O)N[C@@H]2C(=O)N3CCC[C@H]3C(=O)N3CCCC[C@H]3C(=O)N[C@@H](C)C(=O)N3CCC[C@H]3C(=O)O[C@H]2C)cc1 [Compound 15, (S)-3-(3,5-Difluorophenyl)-N-((6S,8aS,14aS,20S,21 S,23aS)-6,21-Dimethyl-5,8,14,19,23-Pentaoxooctadecahydro-1H,5H,14H,19H-Pyrido[2,1-I]Dipyrrolo[2,1-C:2′,1′-L][1]Oxa[4,7,10,13]Tetraazacyclohexadecin-20-Yl)-2-(3-(P-Tolyl)Ureido)Propanamide]	39.7 ± 6.6	0.7	8.4 ± 0.2	0.6 (≈ 0.476 µg/mL)			
C[C@@H]1NC(=O)[C@@H]2CCCCN2C(=O)[C@@H]2CCCN2C(=O)[C@@H](NC(=O)[C@H](Cc2cc(F)cc(F)c2)NC(=O)Nc2ccc(C(F)(F)F)cc2)[C@H](C)OC(=O)[C@@H]2CCCN2C1=O [Compound 16, (S)-3-(3,5-Difluorophenyl)-N-((6S,8aS,14aS,20S,21 S,23aS)-6,21-Dimethyl-5,8,14,19,23-Pentaoxooctadecahydro-1H,5H,14H,19H-Pyrido[2,1-I]Dipyrrolo[2,1-C:2′,1′-L][1]Oxa[4,7,10,13]Tetraazacyclohexadecin-20-Yl)-2-(3-(4-(Trifluoromethyl)Phenyl)Ureido)Propanamide] ({NHPh(4-CF3)-CO}-[Phe(3,5-F2)][aThr]P[Pip]AP; ester 2-C)	74.3 ± 9	0.55	8.3 ± 0.6	1.5 (≈ 1.27 µg/mL)			
C[C@@H]1NC(=O)[C@@H]2CCCCN2C(=O)[C@@H]2CCCN2C(=O)[C@@H](NC(=O)[C@H](Cc2cc(F)cc(F)c2)NC(=O)Nc2ccc3c(c2)OCO3)[C@H](C)OC(=O)[C@@H]2CCCN2C1=O [Compound 17, (S)-2-(3-(Benzo[D][1,3]Dioxol-5-Yl)Ureido)-3-(3,5-Difluorophenyl)-N-((6S,8aS,14aS,20S,21 S,23aS)-6,21-Dimethyl-5,8,14,19,23-Pentaoxooctadecahydro-1H,5H,14H,19H-Pyrido[2,1-I]Dipyrrolo[2,1-C:2′,1′-L][1]Oxa[4,7,10,13]Tetraazacyclohexadecin-20-Yl)Propanamide]					46.5 ± 9.8	0.72	7.2 ± 0.4
Cc1ccc(NC(=O)N[C@@H](Cc2cc(F)cc(F)c2)C(=O)N[C@@H]2C(=O)N3CCC[C@H]3C(=O)N3CCCC[C@H]3C(=O)N[C@@H](C)C(=O)N3C[C@@H](C)C[C@H]3C(=O)O[C@H]2C)cc1 [Compound 18, (S)-3-(3,5-Difluorophenyl)-2-(3-(P-Tolyl)Ureido)-N-((2R,6S,8aS,14aS,20S,21S,23aS)-2,6,21-Trimethyl-5,8,14,19,23-Pentaoxooctadecahydro-1H,5H,14H,19H-Pyrido[2,1-I]Dipyrrolo[2,1-C:2′,1′-L][1]Oxa[4,7,10,13]Tetraazacyclohexadecin-20-Yl)Propanamide]	26.7 ± 3.6	0.32	5.6 ± 0.3	< 0.1			
C[C@H]1C[C@H]2C(=O)O[C@@H](C)[C@H](NC(=O)[C@H](Cc3cc(F)cc(F)c3)NC(=O)Nc3ccc(C(F)(F)F)cc3)C(=O)N3CCC[C@H]3C(=O)N3CCCC[C@H]3C(=O)N[C@@H](C)C(=O)N2C1 [Compound 19, (S)-3-(3,5-Difluorophenyl)-2-(3-(4-(Trifluoromethyl)Phenyl)Ureido)-N-((2R,6S,8aS,14aS,20S,21S,23aS)-2,6,21-Trimethyl-5,8,14,19,23-Pentaoxooctadecahydro-1H,5H,14H,19H-Pyrido[2,1-I]Dipyrrolo[2,1-C:2′,1′-L][1]Oxa[4,7,10,13]Tetraazacyclohexadecin-20-Yl)Propanamide]	36.8 ± 4.1	0.33	5.7 ± 0.3	0.4 (≈ 0.345 µg/mL)			
C[C@H]1C[C@H]2C(=O)O[C@@H](C)[C@H](NC(=O)[C@H](Cc3cc(F)cc(F)c3)NC(=O)Nc3ccc4c(c3)OCO4)C(=O)N3CCC[C@H]3C(=O)N3CCCC[C@H]3C(=O)N[C@@H](C)C(=O)N2C1 [Compound 20, (S)-2-(3-(Benzo[D][1,3]Dioxol-5-Yl)Ureido)-3-(3,5-Difluorophenyl)-N-((2R,6S,8aS,14aS,20S,21 S,23aS)-2,6,21-Trimethyl-5,8,14,19,23-Pentaoxooctadecahydro-1H,5H,14H,19H-Pyrido[2,1-I]Dipyrrolo[2,1-C:2′,1′-L][1]Oxa[4,7,10,13]Tetraazacyclohexadecin-20-Yl)Propanamide]					52.8 ± 4.9	0.36	6 ± 0.3
